Experimental data from publication PMC11882969 (Nature Communications, 2025).
Values joined by “and” are separate entries in the source; they are usually repeats but may differ in a detail not shown here. Identical values can stand only once. Like-named read-outs stand apart in the source and are kept apart here.

Tests used:
CB1 (rCB1) [1] = molecular target: T1, CB1 (rCB1) (Rattus norvegicus, UniProt P20272); assay: Single-point radioligand displacement screen; assay type: binding; conditions: 10 µM, 1 µM or 300 nM by cell colour (not visible)
CB1 (rCB1) [2] = molecular target: T1, CB1 (rCB1); assay: Radioligand competition binding, [3H]-CP-55,940, rat brain membranes
hCB1 = hCB1 (Homo sapiens, UniProt P21554); assay: bioSensAll ebBRET signaling profiling, hCB1; assay type: cell-based; set-up: host or cells: HEK293SL cells, transient PEI transfection; conditions: for Gi1 hCB1 response: Gi1 biosensor; for Gi1 hCB1 / GoB hCB1: single replicate values, FigS6a; for Emax [95% CI]: normalized to CP-55,940; for EC50: read-out: EC50 [95% CI]
Sequence of hCB1 (P21554 whole entry): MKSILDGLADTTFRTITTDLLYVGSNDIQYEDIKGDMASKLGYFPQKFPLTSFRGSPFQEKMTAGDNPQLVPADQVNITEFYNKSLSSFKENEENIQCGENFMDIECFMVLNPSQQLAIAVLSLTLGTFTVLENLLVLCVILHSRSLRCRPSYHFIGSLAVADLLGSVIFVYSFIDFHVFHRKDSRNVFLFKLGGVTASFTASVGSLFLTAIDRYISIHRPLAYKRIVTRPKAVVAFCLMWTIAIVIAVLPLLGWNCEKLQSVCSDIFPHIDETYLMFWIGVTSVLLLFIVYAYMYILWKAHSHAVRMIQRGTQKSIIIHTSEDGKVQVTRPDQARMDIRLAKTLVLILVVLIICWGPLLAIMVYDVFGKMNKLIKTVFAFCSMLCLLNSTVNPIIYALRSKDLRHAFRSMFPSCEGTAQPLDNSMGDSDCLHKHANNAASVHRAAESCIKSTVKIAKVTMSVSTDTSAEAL

T1 sequence (P20272 whole entry): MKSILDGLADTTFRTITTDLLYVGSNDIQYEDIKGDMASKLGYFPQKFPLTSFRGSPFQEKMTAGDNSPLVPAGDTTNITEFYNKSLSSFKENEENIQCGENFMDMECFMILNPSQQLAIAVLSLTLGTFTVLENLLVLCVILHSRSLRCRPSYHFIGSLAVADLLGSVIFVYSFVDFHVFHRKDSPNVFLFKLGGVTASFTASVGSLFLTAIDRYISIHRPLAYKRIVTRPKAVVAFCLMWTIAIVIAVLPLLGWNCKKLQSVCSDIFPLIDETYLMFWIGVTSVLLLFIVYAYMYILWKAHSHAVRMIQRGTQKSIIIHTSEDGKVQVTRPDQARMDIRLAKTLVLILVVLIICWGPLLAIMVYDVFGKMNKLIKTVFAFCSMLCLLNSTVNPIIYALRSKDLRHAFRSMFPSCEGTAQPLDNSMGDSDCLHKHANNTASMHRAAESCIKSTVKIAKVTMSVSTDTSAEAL

COC(=O)[C@@H]1[C@@H]2CCC[C@@H]2CN1C(=O)c1cc(C)n(-c2cccc(Cl)c2)n1 (racemic) [‘10010]
% 1H-CP-55,940 displacement (mean) from single point screen (CB1 (rCB1) [1]): 33.86%
pKi [95% CI] (CB1 (rCB1) [2]; rCB1): 5.9 [5.8 – 6.0]
Ki (CB1 (rCB1) [2]; read-out: Ki [95% CI], rCB1, [3H]-CP-55,940): 1200 nM
Gi1 hCB1 response (hCB1; Log [Compound] (M) -4.22186): 123.556
Gi1 hCB1 response (hCB1; Log [Compound] (M) -4.63927): 104.286
Gi1 hCB1 response (hCB1; Log [Compound] (M) -5.05788): 90.0738
Gi1 hCB1 response (hCB1; Log [Compound] (M) -5.47381): 84.2546
Gi1 hCB1 response (hCB1; Log [Compound] (M) -5.89285): 64.3799
Gi1 hCB1 response (hCB1; Log [Compound] (M) -6.31878): 42.6475
Gi1 hCB1 response (hCB1; Log [Compound] (M) -6.72585): 30.3601
Gi1 hCB1 response (hCB1; Log [Compound] (M) -7.14267): 11.5597
Gi1 hCB1 response (hCB1; Log [Compound] (M) -7.55284): 0.9285
Gi1 hCB1 response (hCB1; Log [Compound] (M) -8): 10.9106
Gi1 hCB1 response (hCB1; Log [Compound] (M) -8.22186): -8.695
Gi1 hCB1 response (hCB1; Log [Compound] (M) -8.39794): 0.6152
Gi1 hCB1 response (hCB1; Log [Compound] (M) -8.68787): -2.362
Gi1 hCB1 response (hCB1; Log [Compound] (M) -9.61989): -10.5755
Gi1 hCB1 response (hCB1; Log [Compound] (M) -10.0969): -9.255
Gi1 hCB1 response (hCB1; Log [Compound] (M) -10.5529): -7.5988
Gi1 hCB1 response (hCB1; Log [Compound] (M) -11.0177): -15.9247
Gi1 hCB1 response (hCB1; Log [Compound] (M) -11.4949): -7.532
Gi1 hCB1 response (hCB1; Log [Compound] (M) -11.9208): -15.2309
Gi1 hCB1 response (hCB1; Log [Compound] (M) -12.3979): -21.4305
Gi1 hCB1 response (hCB1; Log [Compound] (M) -12.8861): 1.8014
Gi1 hCB1 response (hCB1; Log [Compound] (M) -13, individual replicate values): -0.8396 and -0.9068
Gi1 hCB1 (hCB1; Log [Compound] (M) -4.22186): 75.9694
GoB hCB1 (hCB1; Log [Compound] (M) -4.22186): 69.5491
Gi1 hCB1 (hCB1; Log [Compound] (M) -4.63927): 67.922
GoB hCB1 (hCB1; Log [Compound] (M) -4.63927): 64.6397
Gi1 hCB1 (hCB1; Log [Compound] (M) -5.05788): 66.8428
GoB hCB1 (hCB1; Log [Compound] (M) -5.05788): 63.4708
Gi1 hCB1 (hCB1; Log [Compound] (M) -5.47381): 60.337
GoB hCB1 (hCB1; Log [Compound] (M) -5.47381): 61.9062
Gi1 hCB1 (hCB1; Log [Compound] (M) -5.89285): 45.2596
GoB hCB1 (hCB1; Log [Compound] (M) -5.89285): 36.262
Gi1 hCB1 (hCB1; Log [Compound] (M) -6.31878): 29.1955
GoB hCB1 (hCB1; Log [Compound] (M) -6.31878): 27.8098
Gi1 hCB1 (hCB1; Log [Compound] (M) -6.72585): 16.0606
GoB hCB1 (hCB1; Log [Compound] (M) -6.72585): 11.4989
Gi1 hCB1 (hCB1; Log [Compound] (M) -7.14267): 6.117
GoB hCB1 (hCB1; Log [Compound] (M) -7.14267): 3.514
Gi1 hCB1 (hCB1; Log [Compound] (M) -7.55284): 3.804
GoB hCB1 (hCB1; Log [Compound] (M) -7.55284): 2.9568
Gi1 hCB1 (hCB1; Log [Compound] (M) -8): 3.373
GoB hCB1 (hCB1; Log [Compound] (M) -8): 0.9427
Gi1 hCB1 (hCB1; Log [Compound] (M) -8.22186): 2.679
GoB hCB1 (hCB1; Log [Compound] (M) -8.22186): -4.812
Gi1 hCB1 (hCB1; Log [Compound] (M) -8.39794): 2.664
GoB hCB1 (hCB1; Log [Compound] (M) -8.39794): -1.197
Gi1 hCB1 (hCB1; Log [Compound] (M) -8.68787): 1.0911
GoB hCB1 (hCB1; Log [Compound] (M) -8.68787): -4.812
Gi1 hCB1 (hCB1; Log [Compound] (M) -9.15521): 1.8
GoB hCB1 (hCB1; Log [Compound] (M) -9.15521): -5.028
Gi1 hCB1 (hCB1; Log [Compound] (M) -9.61989): 0.8444
GoB hCB1 (hCB1; Log [Compound] (M) -9.61989): -4.38
Gi1 hCB1 (hCB1; Log [Compound] (M) -10.0969): 1.662
GoB hCB1 (hCB1; Log [Compound] (M) -10.0969): -4.057
Gi1 hCB1 (hCB1; Log [Compound] (M) -10.5529): 2.648
GoB hCB1 (hCB1; Log [Compound] (M) -10.5529): 1.212
Gi1 hCB1 (hCB1; Log [Compound] (M) -11.0177): 0.9524
GoB hCB1 (hCB1; Log [Compound] (M) -11.0177): -2.384
Gi1 hCB1 (hCB1; Log [Compound] (M) -11.4949): 2.417
GoB hCB1 (hCB1; Log [Compound] (M) -11.4949): -4.326
Gi1 hCB1 (hCB1; Log [Compound] (M) -11.9208): 1.261
GoB hCB1 (hCB1; Log [Compound] (M) -11.9208): -0.06441
Gi1 hCB1 (hCB1; Log [Compound] (M) -12.3979): 1.908
GoB hCB1 (hCB1; Log [Compound] (M) -12.3979): 2.4173
Gi1 hCB1 (hCB1; Log [Compound] (M) -12.8861): 1.322
GoB hCB1 (hCB1; Log [Compound] (M) -12.8861): 1.59
Gi1 hCB1 (hCB1; Log [Compound] (M) -13): 2.232 and 1.538
GoB hCB1 (hCB1; Log [Compound] (M) -13): 0.8707 and 1.266
pEC50 [95% CI] (hCB1; hCB1 Gi1): 6.1 [6.0 – 6.1]
Emax [95% CI] (hCB1; hCB1 Gi1): 74 [70 – 74]
pEC50 [95% CI] (hCB1; hCB1 GoB): 6.1 [6.0 – 6.2]
Emax [95% CI] (hCB1; hCB1 GoB): 71 [67 – 75]
pEC50 [95% CI] (hCB1; hCB1 Gz): 5.9 [5.4 – 6.3]
Emax [95% CI] (hCB1; hCB1 Gz): 144 [113 –175]
EC50 (hCB1; hCB1 Gi1): 814 nM
EC50 (hCB1; hCB1 GoB): 801 nM
EC50 (hCB1; hCB1 Gz): 1400 nM
